{"source": "BindingDB's records for doi:10.1073/pnas.0609412103", "about": "(Genomics Institute of The Novartis Research Foundation, 2007)", "experiment": "Inhibition of Tel-fused RON kinase-mediated mouse BaF3 cell proliferation"}
{"smiles": "COc1cc(N2CCC(N3CCN(C)CC3)CC2)ccc1Nc1ncc(Cl)c(Nc2ccccc2S(=O)(=O)C(C)C)n1", "note": "[TAE684]", "values": [{"measurement": "IC50", "result": 1630, "unit": "nM"}]}
